MIC data for three compounds are collected here from PMC10648927, “Examining the activity of cefepime-taniborbactam against Burkholderia cepacia complex and Burkholderia gladioli isolated from cystic fibrosis patients in the United States” (Antimicrobial Agents and Chemotherapy, 2023).

Converted amounts (≈) assume the structure as drawn.

Set-up in all cases: agar dilution MIC, growth inhibition of clinical Burkholderia isolates
The subject of one test is T1, B. gladioli AU28659.
T1 construct: AU28659
In words: organism not typed. The gist of the method:
(§1)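 MICs by agar dilution against Bcc and B. gladioli clinical isolates, interpreted with CLSI breakpoints where available; K. pneumoniae ATCC 700603 (SHV-18) and ATCC BAA-1705 (KPC) served as quality controls.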

A further test has as its system T2, B. multivorans AU22436.
T2 construct: AU22436
Description: microbe, parasite or virus in culture. The conditions noted are these: Burkholderia multivorans, AU22436. The gist of the method: as §1

The subject of another test is T3, B. ambifaria AU11161.
T3 construct: AU11161
Description: microbe, parasite or virus in culture. The settings on record: Burkholderia ambifaria, AU11161. In short, it runs like this: as §1

The next test has as its system T4, B. cenocepacia AU20545.
T4 construct: AU20545
Description: microbe, parasite or virus in culture. The conditions noted are these: Burkholderia cenocepacia, AU20545. In short, it runs like this: as §1

The subject of a further test is T5, B. cenocepacia AU11339.
T5 construct: AU11339
Description: microbe, parasite or virus in culture. The conditions noted are these: Burkholderia cenocepacia, AU11339. The gist of the method:
as §1

Another test relates to T6, B. vietnamiensis AU10214.
T6 construct: AU10214
Description: microbe, parasite or virus in culture. The conditions noted are these: Burkholderia vietnamiensis, AU10214. In short, it runs like this: as §1

The next test concerns T7, B. cenocepacia AU10321.
T7 construct: AU10321
Description: microbe, parasite or virus in culture. The conditions noted are these: Burkholderia cenocepacia, AU10321. In short, it runs like this:
as §1

The subject of the next test is T8, B. dolosa AU9336.
T8 construct: AU9336
In words: microbe, parasite or virus in culture. The settings on record: Burkholderia dolosa, AU9336. The gist of the method:
as §1

Test [1] relates to T9, Burkholderia cepacia complex Bcc Indeterminate AU19821.
T9 construct: AU19821
In words: microbe, parasite or virus in culture. The conditions noted are these: Burkholderia cepacia. The gist of the method:
as §1

The next test concerns T10, B. multivorans AU23995.
T10 construct: AU23995
In words: microbe, parasite or virus in culture. The settings on record: Burkholderia multivorans, AU23995. The gist of the method: as §1

Test [2] relates to T11, Burkholderia cepacia complex Bcc Indeterminate AU14915.
T11 construct: AU14915
In words: microbe, parasite or virus in culture. The conditions noted are these: Burkholderia cepacia. In short, it runs like this: as §1

In a further test the test system is T12, B. cenocepacia AU141094.
T12 construct: AU141094
In words: microbe, parasite or virus in culture. The conditions noted are these: Burkholderia cenocepacia, AU141094. In short, it runs like this: as §1

The test system of another test is T13, B. stabilis AU10235.
T13 construct: AU10235
In words: microbe, parasite or virus in culture. The conditions noted are these: Burkholderia stabilis, AU10235. The gist of the method:
as §1

A further test deals with T14, B. cenocepacia AU21083.
T14 construct: AU21083
In words: microbe, parasite or virus in culture. The settings on record: Burkholderia cenocepacia, AU21083. In short, it runs like this:
as §1

For a further test, the system named is T15, B. multivorans AU26250.
T15 construct: AU26250
Description: microbe, parasite or virus in culture. The conditions noted are these: Burkholderia multivorans, AU26250. The gist of the method:
as §1

The subject of another test is T16, B. vietnamiensis AU30387.
T16 construct: AU30387
In words: microbe, parasite or virus in culture. The conditions noted are these: Burkholderia vietnamiensis, AU30387. In short, it runs like this: as §1

Another test has as its system T17, B. cenocepacia AU0133.
T17 construct: AU0133
Description: microbe, parasite or virus in culture. The settings on record: Burkholderia cenocepacia, AU0133. The gist of the method: as §1

The test system of a further test is T18, B. gladioli AU27927.
T18 construct: AU27927
In words: organism not typed. The gist of the method:
as §1

The subject of a further test is T19, B. cepacia AU15677.
T19 construct: AU15677
In words: microbe, parasite or virus in culture. The conditions noted are these: Burkholderia cepacia, AU15677. The gist of the method:
as §1

For test [3], the system named is T20, Burkholderia cepacia complex Bcc Indeterminate AU19076.
T20 construct: AU19076
In words: microbe, parasite or virus in culture. The settings on record: Burkholderia cepacia. The gist of the method:
as §1

The subject of the next test is T21, B. cenocepacia AU14093.
T21 construct: AU14093
In words: microbe, parasite or virus in culture. The settings on record: Burkholderia cenocepacia, AU14093. In short, it runs like this: as §1

In a further test the test system is T22, B. cenocepacia AU9292.
T22 construct: AU9292
Description: microbe, parasite or virus in culture. The conditions noted are these: Burkholderia cenocepacia, AU9292. In short, it runs like this: as §1

Consider `CO/N=C(\C(=O)N[C@@H]1C(=O)N2C(C(=O)[O-])=C(C[N+]3(C)CCCC3)CS[C@H]12)c1csc(N)n1` [cefepime], for which the MIC is 32 µg/mL (≈ 66.6 µM) against B. gladioli AU28659; 8 µg/mL (≈ 16.6 µM) in the test on B. multivorans AU22436; greater than 32 µg/mL against B. ambifaria AU11161; 8 µg/mL (≈ 16.6 µM) against B. cenocepacia AU20545; 16 µg/mL (≈ 33.3 µM) against B. cenocepacia AU11339; 8 µg/mL (≈ 16.6 µM) in the test on B. vietnamiensis AU10214. Moreover, the MIC (with B. cenocepacia AU10321; in the test on B. dolosa AU9336; in [1]; in the test with B. multivorans AU23995; in test [2]; in the test on B. cenocepacia AU141094) was greater than 32 µg/mL in each case. The MIC in the test on B. stabilis AU10235 was greater than 32 µg/mL; with B. cenocepacia AU21083, 16 µg/mL (≈ 33.3 µM); against B. multivorans AU26250 it was 4 µg/mL (≈ 8.32 µM); in the test with B. vietnamiensis AU30387, 2 µg/mL (≈ 4.16 µM); against B. cenocepacia AU0133, 16 µg/mL (≈ 33.3 µM); against B. gladioli AU27927 it was 8 µg/mL (≈ 16.6 µM). The MIC against B. cepacia AU15677 was 32 µg/mL (≈ 66.6 µM); in test [3] it was 16 µg/mL (≈ 33.3 µM); in the test on B. cenocepacia AU14093, greater than 32 µg/mL; in the test on B. cenocepacia AU9292, 32 µg/mL (≈ 66.6 µM).

For the compound `C[C@H]1COc2c(N3CCN(C)CC3)c(F)cc3c(=O)c(C(=O)O)cn1c23` [levofloxacin], the MIC against B. gladioli AU28659 is 2 µg/mL (≈ 5.53 µM); against B. multivorans AU22436, greater than 32 µg/mL; with B. ambifaria AU11161 it was 32 µg/mL (≈ 88.6 µM); against B. cenocepacia AU20545, 2 µg/mL (≈ 5.53 µM); against B. cenocepacia AU11339, 2 µg/mL (≈ 5.53 µM); with B. vietnamiensis AU10214 it was 8 µg/mL (≈ 22.1 µM). The MIC is greater than 32 µg/mL against B. cenocepacia AU10321; 32 µg/mL (≈ 88.6 µM) against B. dolosa AU9336; 32 µg/mL (≈ 88.6 µM) in [1]; 4 µg/mL (≈ 11.1 µM) in the test with B. multivorans AU23995; 16 µg/mL (≈ 44.3 µM) in test [2]; greater than 32 µg/mL in the test on B. cenocepacia AU141094. Also, the MIC came out at 16 µg/mL (≈ 44.3 µM) in the test with B. stabilis AU10235; 2 µg/mL (≈ 5.53 µM) in the test with B. cenocepacia AU21083; 2 µg/mL (≈ 5.53 µM) with B. multivorans AU26250; 2 µg/mL (≈ 5.53 µM) in the test on B. vietnamiensis AU30387; 4 µg/mL (≈ 11.1 µM) in the test on B. cenocepacia AU0133; 1 µg/mL (≈ 2.77 µM) in the test with B. gladioli AU27927. Also, the MIC against B. cepacia AU15677 is 4 µg/mL (≈ 11.1 µM); in [3], 4 µg/mL (≈ 11.1 µM); against B. cenocepacia AU14093 it was greater than 32 µg/mL; with B. cenocepacia AU9292, 32 µg/mL (≈ 88.6 µM).

As for `C[C@@H](O)[C@H]1C(=O)N2C(C(=O)O)=C(S[C@@H]3CN[C@H](C(=O)N(C)C)C3)[C@H](C)[C@H]12` [meropenem], the MIC with B. gladioli AU28659 is 2 µg/mL (≈ 5.22 µM); against B. multivorans AU22436, 8 µg/mL (≈ 20.9 µM); in the test with B. ambifaria AU11161, 8 µg/mL (≈ 20.9 µM); in the test on B. cenocepacia AU20545, 2 µg/mL (≈ 5.22 µM); in the test on B. cenocepacia AU11339, 2 µg/mL (≈ 5.22 µM); against B. vietnamiensis AU10214 it was 0.5 µg/mL (≈ 1.3 µM). The MIC was 16 µg/mL (≈ 41.7 µM) in the test on B. cenocepacia AU10321; 8 µg/mL (≈ 20.9 µM) with B. dolosa AU9336; 16 µg/mL (≈ 41.7 µM) in test [1]; 8 µg/mL (≈ 20.9 µM) against B. multivorans AU23995; 16 µg/mL (≈ 41.7 µM) in [2]; 16 µg/mL (≈ 41.7 µM) in the test with B. cenocepacia AU141094. The MIC in the test on B. stabilis AU10235 came out at 16 µg/mL (≈ 41.7 µM); against B. cenocepacia AU21083, 4 µg/mL (≈ 10.4 µM); in the test with B. multivorans AU26250 it was 2 µg/mL (≈ 5.22 µM); in the test with B. vietnamiensis AU30387, 0.25 µg/mL (≈ 0.652 µM); in the test on B. cenocepacia AU0133, 4 µg/mL (≈ 10.4 µM); against B. gladioli AU27927, 1 µg/mL (≈ 2.61 µM). Also, the MIC against B. cepacia AU15677 turned out to be 4 µg/mL (≈ 10.4 µM); in test [3] it was 4 µg/mL (≈ 10.4 µM); in the test with B. cenocepacia AU14093, 8 µg/mL (≈ 20.9 µM); with B. cenocepacia AU9292, 4 µg/mL (≈ 10.4 µM).
